Data reported in PubChem BioAssay AID330 (DTP/NCI, 2004).
Several values for one entry are separate records, joined by “and”; a condition that tells them apart may be missing. Equal values may be shown once. Toxic doses and inconclusive results are not listed.

Test system: P388 leukemia ip, CD2F1 mice, survival T/C
Experiment: NCI In Vivo Anticancer Drug Screen. Data for tumor model P388 Leukemia (intraperitoneal) in CD2F1 (CDF1) mice
Conditions: endpoint: median survival time, higher = longer survival
Outline: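 Mice carrying the transplanted tumor received test compound or vehicle. Survival was recorded in each group, and the value is the treated-group measurement divided by that of the vehicle-treated control group.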

[1] = dose: 25.0 mg/kg/injection, schedule: Q01DX005 (ip), vehicle: Klucel (hydroxypropylcellulose) (HPC)
[2] = dose: 50.0 mg/kg/injection, schedule: Q01DX005 (ip), vehicle: Klucel (hydroxypropylcellulose) (HPC)
[3] = dose: 100.0 mg/kg/injection, schedule: Q01DX005 (ip), vehicle: Klucel (hydroxypropylcellulose) (HPC)
[4] = dose: 200.0 mg/kg/injection, schedule: Q01DX005 (ip), vehicle: Klucel (hydroxypropylcellulose) (HPC)
[5] = dose: 50.0 mg/kg/injection, schedule: Q01DX009 (ip), vehicle: Klucel (hydroxypropylcellulose) (HPC)
[6] = dose: 100.0 mg/kg/injection, schedule: Q01DX009 (ip), vehicle: Klucel (hydroxypropylcellulose) (HPC)
[7] = dose: 200.0 mg/kg/injection, schedule: Q01DX009 (ip), vehicle: Klucel (hydroxypropylcellulose) (HPC)
[8] = dose: 50.0 mg/kg/injection, schedule: Q01DX005 (ip), vehicle: saline with Tween-80
[9] = dose: 100.0 mg/kg/injection, schedule: Q01DX005 (ip), vehicle: saline with Tween-80
[10] = dose: 200.0 mg/kg/injection, schedule: Q01DX005 (ip), vehicle: saline with Tween-80
[11] = dose: 50.0 mg/kg/injection, schedule: Q01DX009 (ip), vehicle: saline with Tween-80
[12] = dose: 100.0 mg/kg/injection, schedule: Q01DX009 (ip), vehicle: saline with Tween-80
[13] = dose: 200.0 mg/kg/injection, schedule: Q01DX009 (ip), vehicle: saline with Tween-80

Oc1cc(CN2CCCCC2)c(O)cc1CN1CCCCC1
T/C (dose: 3.12 mg/kg/injection, schedule: Q01DX009 (ip), vehicle: saline): 106 % of control | T/C (dose: 6.25 mg/kg/injection, schedule: Q01DX009 (ip), vehicle: saline): 106 % of control | T/C (dose: 12.5 mg/kg/injection, schedule: Q01DX009 (ip), vehicle: saline): 98 % of control | T/C (dose: 25.0 mg/kg/injection, schedule: Q01DX009 (ip), vehicle: saline): 104 % of control

c1ccc(Cn2nnnc2Nc2ccccc2)cc1
T/C [1]: 94 % of control | T/C [2]: 88 % of control and 97 % of control | T/C [3]: 94 % of control | T/C [4]: 90 % of control

Clc1cccc(Cl)c1NC1=NCCS1
T/C [5]: 92 % of control | T/C [6]: 101 % of control

COc1ccc(-c2sc(/N=C/c3cc(OC)c(OC)c(OC)c3)c(C#N)c2C)cc1OC
T/C (dose: 50.0 mg/kg/injection, schedule: Q04DX003 (ip), vehicle: saline with Tween-80): 101 % of control | T/C (dose: 100.0 mg/kg/injection, schedule: Q04DX003 (ip), vehicle: saline with Tween-80): 99 % of control | T/C (dose: 200.0 mg/kg/injection, schedule: Q04DX003 (ip), vehicle: saline with Tween-80): 100 % of control | T/C (dose: 400.0 mg/kg/injection, schedule: Q04DX003 (ip), vehicle: saline with Tween-80): 90 % of control

COC(=O)c1ccc(CNC(=O)c2ccccc2C(=O)NCC2(CBr)OCCO2)cc1
T/C [5]: 113 % of control | T/C [6]: 99 % of control | T/C [7]: 96 % of control

CC(NN(C)C(=S)Nc1ccccc1)c1ccccn1 (centres undefined)
T/C [8]: 100 % of control | T/C [9]: 103 % of control | T/C [10]: 109 % of control

Cn1ccc2cc(C3CCCc4c3[nH]c3ccccc43)c(OCc3ccccc3)cc21 (centres undefined)
T/C (dose: 6.25 mg/kg/injection, schedule: Q01DX005 (ip), vehicle: Klucel (hydroxypropylcellulose) (HPC)): 99 % of control | T/C (dose: 12.5 mg/kg/injection, schedule: Q01DX005 (ip), vehicle: Klucel (hydroxypropylcellulose) (HPC)): 97 % of control | T/C [1]: 97 % of control

CCC(=C(c1ccc(OCCN(C)C)cc1)c1cccc(O)c1)c1ccccc1 (mixture of isomers)
T/C (dose: 60.0 mg/kg/injection, schedule: Q01DX005 (ip), vehicle: Klucel (hydroxypropylcellulose) (HPC)): 104 % of control | T/C (dose: 120.0 mg/kg/injection, schedule: Q01DX005 (ip), vehicle: Klucel (hydroxypropylcellulose) (HPC)): 107 % of control

C=C(C)C(=O)NCC(=O)Nc1ccc(CC(NC(C)=O)C(=O)OC)cc1 (centres undefined)
T/C [8]: 102 % of control | T/C [9]: 100 % of control | T/C [10]: 89 % of control

CN(C)c1ccc(C(=C2C=CC(=[N+](C)c3ccccc3)c3ccccc32)c2ccc(N(C)C)cc2)cc1
T/C (dose: 1.56 mg/kg/injection, schedule: Q01DX005 (ip), vehicle: saline with Tween-80): 116 % of control

COc1ccc(CCNC(=O)Cc2ccc3cc(OC)c(OC)cc3c2)cc1OC
T/C [11]: 120 % of control | T/C [12]: 100 % of control | T/C [13]: 90 % of control

OCC1OC(OC2C(CO)OC(Sc3ccccc3)C(O)C2O)C(O)C(O)C1O (centres undefined)
T/C [2]: 101 % of control | T/C [3]: 105 % of control | T/C [4]: 105 % of control

CCCc1c(-n2[nH]c(=O)n(-c3ccccc3)c2=O)c(=O)n(C)c(=O)n1C
T/C [5]: 110 % of control | T/C [6]: 105 % of control | T/C [7]: 95 % of control

CC1CC(C)/C(=N/NC(N)=O)C(C(O)CC2CCC(=O)NC2=O)C1 (centres undefined)
T/C [8]: 100 % of control | T/C [9]: 115 % of control | T/C [10]: 115 % of control

COc1ccc(C(=O)C(CCC(=O)/C=C/c2ccccc2)S(C)(=O)=O)cc1 (centres undefined)
T/C [2]: 105 % of control | T/C [3]: 99 % of control | T/C [4]: 87 % of control

O=C(O)CCOCCCOCCC(=O)O
T/C (dose: 50.0 mg/kg/injection, schedule: Q01DX005 (ip), vehicle: saline): 95 % of control | T/C (dose: 100.0 mg/kg/injection, schedule: Q01DX005 (ip), vehicle: saline): 98 % of control | T/C (dose: 200.0 mg/kg/injection, schedule: Q01DX005 (ip), vehicle: saline): 100 % of control

CC[C@@]1(O)C[C@H](OC2CC(N(C)C)C(OC3CC(O)C(OC4CCC(=O)C(C)O4)C(C)O3)C(C)O2)c2c(cc3c(c2O)C(=O)c2c(O)ccc(O)c2C3=O)[C@H]1C(=O)OC (some centres undefined)
T/C (dose: 1.56 mg/kg/injection, schedule: Q04DX003 (ip), vehicle: saline): 116 % of control | T/C (dose: 2.0 mg/kg/injection, schedule: Q04DX003 (ip), vehicle: saline with Tween-80): 154 % of control and 161 % of control | T/C (dose: 2.59 mg/kg/injection, schedule: Q04DX003 (ip), vehicle: water): 160 % of control | T/C (dose: 4.32 mg/kg/injection, schedule: Q04DX003 (ip), vehicle: saline): 152 % of control and 153 % of control and 160 % of control | T/C (dose: 4.32 mg/kg/injection, schedule: Q04DX003 (ip), vehicle: water): 151 % of control and 169 % of control | T/C (dose: 7.2 mg/kg/injection, schedule: Q04DX003 (ip), vehicle: saline): 164 % of control and 180 % of control | T/C (dose: 8.0 mg/kg/injection, schedule: Q04DX003 (ip), vehicle: saline with Tween-80): 94 % of control and 98 % of control | T/C (dose: 12.0 mg/kg/injection, schedule: Q04DX003 (ip), vehicle: saline): 103 % of control | T/C (dose: 12.0 mg/kg/injection, schedule: Q04DX003 (ip), vehicle: water): 92 % of control

COc1ccc2[nH]c3c(C)c4cc[n+](C)c(C)c4cc3c2c1
T/C (dose: 1.56 mg/kg/injection, schedule: Q04DX002 (ip), vehicle: water): 97 % of control | T/C (dose: 3.12 mg/kg/injection, schedule: Q04DX002 (ip), vehicle: water): 104 % of control | T/C (dose: 6.25 mg/kg/injection, schedule: Q04DX002 (ip), vehicle: water): 107 % of control | T/C (dose: 10.0 mg/kg/injection, schedule: Q04DX002 (ip), vehicle: water): 200 % of control | T/C (dose: 12.5 mg/kg/injection, schedule: Q04DX002 (ip), vehicle: water): 113 % of control | T/C (dose: 20.0 mg/kg/injection, schedule: Q04DX002 (ip), vehicle: water): 115 % of control | T/C (dose: 25.0 mg/kg/injection, schedule: Q04DX002 (ip), vehicle: water): 117 % of control | T/C (dose: 40.0 mg/kg/injection, schedule: Q04DX002 (ip), vehicle: water): 112 % of control | T/C (dose: 50.0 mg/kg/injection, schedule: Q04DX002 (ip), vehicle: water): 123 % of control

N#CC1=C(N)OC(c2ccccc2)=C(C#N)C1c1ccccc1 (centres undefined)
T/C (dose: 60.0 mg/kg/injection, schedule: Q01DX005 (ip), vehicle: saline with Tween-80): 98 % of control | T/C (dose: 120.0 mg/kg/injection, schedule: Q01DX005 (ip), vehicle: saline with Tween-80): 96 % of control | T/C (dose: 240.0 mg/kg/injection, schedule: Q01DX005 (ip), vehicle: saline with Tween-80): 91 % of control

CC1(C)S[C@@H]2C(Cl)=C(Cl)C(=O)N2[C@H]1C(=O)O
T/C [8]: 91 % of control | T/C [9]: 91 % of control

CCN(CC)[P+](c1cc(OC)ccc1OC)(N(CC)CC)N(CC)CC
T/C (dose: 1.56 mg/kg/injection, schedule: Q01DX009 (ip), vehicle: Klucel (hydroxypropylcellulose) (HPC)): 121 % of control | T/C (dose: 3.13 mg/kg/injection, schedule: Q01DX009 (ip), vehicle: Klucel (hydroxypropylcellulose) (HPC)): 106 % of control | T/C (dose: 25.0 mg/kg/injection, schedule: Q01DX009 (ip), vehicle: Klucel (hydroxypropylcellulose) (HPC)): 91 % of control

O=C(O)c1ncnn1-c1ccccc1
T/C (dose: 60.0 mg/kg/injection, schedule: Q01DX005 (ip), vehicle: saline): 91 % of control | T/C (dose: 120.0 mg/kg/injection, schedule: Q01DX005 (ip), vehicle: saline): 96 % of control | T/C (dose: 240.0 mg/kg/injection, schedule: Q01DX005 (ip), vehicle: saline): 99 % of control

CC(N)c1ccccc1 (centres undefined) (tested in a mixture with another compound)
T/C [11]: 104 % of control | T/C [12]: 99 % of control | T/C [13]: 99 % of control

CNC(=O)OCCC(OC(=O)NC)C1CCC2C3CC=C4CC(OC(C)=O)CCC4(C)C3CCC12C (centres undefined)
T/C (dose: 100.0 mg/kg/injection, schedule: Q01DX001 (ip), vehicle: Klucel (hydroxypropylcellulose) (HPC)): 103 % of control | T/C (dose: 200.0 mg/kg/injection, schedule: Q01DX001 (ip), vehicle: Klucel (hydroxypropylcellulose) (HPC)): 104 % of control | T/C (dose: 400.0 mg/kg/injection, schedule: Q01DX001 (ip), vehicle: Klucel (hydroxypropylcellulose) (HPC)): 110 % of control

COc1ccc(C)cc1N=NC1C(=O)N(C(=O)CC(=O)Nc2ccccc2Cl)N=C1C (centres undefined)
T/C [2]: 96 % of control | T/C [3]: 95 % of control
